Where a name gives a salt, the structure may show the parent alone.

For the test, the target named is hERG (Homo sapiens, UniProt Q12809). As to the kind of experiment: cell-based. As to conditions: (-LOG10(IC50), µM).
Chain of hERG (Q12809 whole entry): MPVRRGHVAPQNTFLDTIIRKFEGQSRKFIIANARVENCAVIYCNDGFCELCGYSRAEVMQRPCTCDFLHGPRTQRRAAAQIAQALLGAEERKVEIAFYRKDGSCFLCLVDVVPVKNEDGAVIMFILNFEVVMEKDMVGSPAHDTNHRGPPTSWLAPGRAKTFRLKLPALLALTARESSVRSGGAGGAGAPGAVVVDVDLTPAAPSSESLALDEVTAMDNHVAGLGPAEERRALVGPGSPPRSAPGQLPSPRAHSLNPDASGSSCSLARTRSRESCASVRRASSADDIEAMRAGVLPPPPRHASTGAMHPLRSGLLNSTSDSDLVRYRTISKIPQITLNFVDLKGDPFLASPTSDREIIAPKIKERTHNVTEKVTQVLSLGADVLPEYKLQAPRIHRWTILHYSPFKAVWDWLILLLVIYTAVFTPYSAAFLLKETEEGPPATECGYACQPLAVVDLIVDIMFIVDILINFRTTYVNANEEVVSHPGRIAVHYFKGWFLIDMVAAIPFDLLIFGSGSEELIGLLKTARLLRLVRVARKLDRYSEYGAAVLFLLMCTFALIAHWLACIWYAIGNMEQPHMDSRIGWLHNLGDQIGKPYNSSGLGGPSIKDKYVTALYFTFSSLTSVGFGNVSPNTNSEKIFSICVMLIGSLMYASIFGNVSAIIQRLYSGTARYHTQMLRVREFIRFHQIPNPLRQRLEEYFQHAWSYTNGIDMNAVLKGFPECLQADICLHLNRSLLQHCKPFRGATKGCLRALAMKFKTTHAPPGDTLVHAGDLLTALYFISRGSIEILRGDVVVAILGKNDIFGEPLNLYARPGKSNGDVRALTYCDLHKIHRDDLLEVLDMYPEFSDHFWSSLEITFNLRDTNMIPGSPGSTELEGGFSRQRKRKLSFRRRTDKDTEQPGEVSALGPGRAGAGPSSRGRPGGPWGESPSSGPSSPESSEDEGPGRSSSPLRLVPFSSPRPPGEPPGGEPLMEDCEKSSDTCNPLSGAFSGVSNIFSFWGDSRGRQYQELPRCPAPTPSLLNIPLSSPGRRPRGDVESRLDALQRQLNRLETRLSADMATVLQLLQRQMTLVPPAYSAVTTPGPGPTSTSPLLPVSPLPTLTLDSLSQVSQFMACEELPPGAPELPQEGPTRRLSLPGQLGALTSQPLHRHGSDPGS
For the compound `COc1cc(C(C)(C)C)c(O)c(C(C)(C)C)c1` [2,6-Di-tert-butyl-4-methoxyphenol], the IC50 – broadly, the concentration that inhibits the measured activity by half – is 38.9 µM. Regarding `CC(C)(C)c1cc([N+](=O)[O-])cc(C(C)(C)C)c1O` [2,6-Di-tert-butyl-4-nitrophenol], 38.9 µM corresponded to half-maximal inhibition (IC50). With `CC(C)(C)c1cccc(C(C)(C)C)c1O` [2,6-Di-tert-butylphenol], 19.8 µM corresponded to half-maximal inhibition (IC50). `CC(C)(C)C1(CCc2ccc(Cl)cc2)CO1` (stereo not shown) [2-(2-(4-Chlorophenyl)ethyl)-2-(1,1-dimethylethyl)oxirane] showed an IC50 of 23.2 µM.

Turning to `Cc1ccc(O)c(-n2nc3ccccc3n2)c1` [2-(2H-Benzotriazol-2-yl)-4-methylphenol], it took 36 µM to reach half-maximal inhibition (IC50). For the compound `CCCCCCCCC=CCCCCCCCC1=NCCN1CCO` [2-(8-Heptadecenyl)-2-imidazoline-1-ethanol], it took 11.8 µM to reach half-maximal inhibition (IC50). Take `Nc1ccc(Cl)cc1C(=O)c1ccccc1` [2-Amino-5-chlorobenzophenone]: half-maximal inhibition (IC50) was put at 50.9 µM. The compound `CCOc1ccc2nc(N)sc2c1` [2-Amino-6-ethoxybenzothiazole] yielded an IC50 of 43.3 µM. This IC50 and that of the compound before are within 1.5-fold of each other. The compound `CCC(Cc1ccccc1)(C(=O)c1ccc(N2CCOCC2)cc1)N(C)C` (stereo not shown) [2-Benzyl-2-(dimethylamino)-1-[4-(morpholin-4-yl)phenyl]butan-1-one] had an IC50 of 19.5 µM. `Brc1ccccc1-c1ccccc1` [2-Bromobiphenyl] gave an IC50 of 35.5 µM.

`CCc1ccc2c(c1)C(=O)c1ccccc1C2=O` [2-Ethylanthraquinone] gave an IC50 of 24.5 µM.

The compound `CCCCC(CC)COC(=O)c1ccc(O)cc1` (stereo not shown) [2-Ethylhexyl p-hydroxybenzoate] gave an IC50 of 24.5 µM. Take `CCCCC(CC)COC(=O)C(C#N)=C(c1ccccc1)c1ccccc1` (stereo not shown) [2-Ethylhexyl-2-cyano-3,3-diphenylacrylate]: the midpoint of inhibition, the IC50, lay at 18.4 µM. On to `NNc1nc(-c2ccc([N+](=O)[O-])cc2)cs1` [2-Hydrazino-4-(4-nitrophenyl)thiazole], for which half-maximal inhibition (IC50) was put at 23.6 µM. As for `COc1ccc(C(=O)c2ccccc2)c(O)c1` [2-Hydroxy-4-methoxybenzophenone], the IC50 worked out at 43.6 µM. For the compound `Cc1ccc(O)c(C(=O)c2ccccc2)c1` [2-Hydroxy-5-methylbenzophenone], it took 35 µM to reach half-maximal inhibition (IC50). On to `O=[N+]([O-])c1ccccc1Nc1ccccc1` [2-Nitrodiphenylamine], for which the IC50 was 48.7 µM.

On to `Cc1cc(C(C)(C)c2ccc(O)c(C)c2)ccc1O` [3,3'-Dimethylbisphenol A], for which inhibition was half-maximal at 41.6 µM (IC50). In turn, `O=CC=C(c1ccccc1)c1ccccc1` [3,3-Diphenylacrylaldehyde] had an IC50 of 42.4 µM. On to `CC(C)(C)c1ccc(CCC=O)cc1` [3-(4-tert-Butylphenyl)propanal], for which the IC50 is 49 µM. This IC50 and that of the compound before are within 1.5-fold of each other.

`CC1C2CC(CC2C2CCCC(O)C2)C1(C)C` (stereo not shown) [3-(5,5,6-Trimethylbicyclo[2.2.1]hept-2-yl)cyclohexanol] gave an IC50 of 22.7 µM. With `CCCCC(CC)COCCCN` (stereo not shown) [3-((2-Ethylhexyl)oxy)propylamine] the figure was 35.6 µM. Compound `CSCCCN=C=S` [3-(Methylthio)propyl isothiocyanate] showed an IC50 of 36.7 µM. In turn, `CCCCCCCCOCCCN` [3-(Octyloxy)propan-1-amine] registered an IC50 of 43.6 µM.

Regarding `Cc1cccc(Nc2ccccc2)c1` [3-Methyl-N-phenylaniline], it took 52.9 µM to reach half-maximal inhibition (IC50). This IC50 and that of the compound before are within 1.5-fold of each other. The compound `O=C(C=Cc1ccccc1)OCCCc1ccccc1` [3-Phenylpropyl cinnamate] showed an IC50 of 19.5 µM.

Compound `O=C(CCS)OCC(COC(=O)CCS)(COC(=O)CCS)COC(=O)CCS` [3-[(3-Sulfanylpropanoyl)oxy]-2,2-bis{[(3-sulfanylpropanoyl)oxy]methyl}propyl 3-sulfanylpropanoate] showed an IC50 of 33.4 µM.

In turn, `CC(C)CC(C)(c1ccc(O)cc1)c1ccc(O)cc1` [4,4'-(4-Methylpentane-2,2-diyl)diphenol] gave an IC50 of 28.6 µM. `Brc1ccc(Oc2ccc(Br)cc2)cc1` [4,4'-Dibromodiphenyl ether] had an IC50 of 18.8 µM. This IC50 lies about 1.5-fold lower than the previous one. For `O=S(=O)(c1ccc(Cl)cc1)c1ccc(Cl)cc1` [4,4'-Dichlorodiphenyl sulfone], it took 49.7 µM to reach half-maximal inhibition (IC50). `CCCCCCCCn1sc(Cl)c(Cl)c1=O` [4,5-Dichloro-2-octyl-3(2H)-isothiazolone] showed a 50% inhibitory concentration (IC50) of 16.1 µM. Under `CC(C)(C)CC(C)(C)c1ccc(O)cc1` [4-(1,1,3,3-Tetramethylbutyl)phenol] stands 21.3 µM; under `CCC(C)c1cc(C(C)(C)C)c(O)c(C(C)(C)C)c1` (stereo not shown) [4-(Butan-2-yl)-2,6-di-tert-butylphenol], 8.54 µM; under `Nc1ccc(Oc2ccc(Cl)cc2)cc1` [4-Chloro-4'-aminodiphenyl ether], 41.1 µM. Regarding `CC(CC(C#N)(c1ccccc1)c1ccccc1)N(C)C` (stereo not shown) [4-Dimethylamino-2,2-diphenylvaleronitrile], it took 29.6 µM to reach half-maximal inhibition (IC50). This IC50 and that of the compound before are within 1.5-fold of each other. `CCCCCCCCCCCCN1CCOCC1` [4-Dodecylmorpholine] gave a 50% inhibitory concentration (IC50) of 15.5 µM. With `CCCCCCCCCCCCc1ccc(O)cc1` [4-Dodecylphenol] the figure was 19.5 µM; with `O=[N+]([O-])c1ccc(Nc2ccccc2)cc1` [4-Nitro-N-phenylaniline], 51.3 µM.

Consider `CCCCCCCCCc1ccc(O)cc1` [4-Nonylphenol, branched], for which 34.3 µM corresponded to half-maximal inhibition (IC50). As to `Cc1ccc(-c2ccccc2)cc1` [4-Phenyltoluene], half-maximal inhibition (IC50) was put at 49 µM. The IC50 values of the last two compounds are within 1.5-fold of each other.

Compound `N#Cc1ccc(CC(=O)c2cccc(C(F)(F)F)c2)cc1` [4-{2-Oxo-2-[3-(trifluoromethyl)phenyl]ethyl}benzonitrile] showed an IC50 of 30.9 µM. With `O=[N+]([O-])C1(Br)COCOC1` [5-Bromo-5-nitro-1,3-dioxane] the figure was 51.9 µM. The compound `O=C1CCCC=CCCCCCCCCCC1` [5-Cyclohexadecen-1-one] gave an IC50 of 29.2 µM. The compound `COc1ccc2[nH]cc(CCN(C(C)C)C(C)C)c2c1` [5-Methoxy-N,N-diisopropyltryptamine hydrochloride] had an IC50 of 25.2 µM. For `CC(C)CC(C)Nc1ccc(Nc2ccccc2)cc1` (stereo not shown) [6PPD], 29 µM corresponded to half-maximal inhibition (IC50).

On to `C/C=C/C=C/CCCCCCCO` [8,10-Dodecadien-1-ol], for which it took 22.7 µM to reach half-maximal inhibition (IC50). As for `CCn1c2ccccc2c2cc([N+](=O)[O-])ccc21` [9-Ethyl-3-nitro-9H-carbazole], the IC50 is 28.6 µM. As for `c1ccc2c(c1)CCc1ccccc1N2` [10,11-Dihydro-5H-dibenz[b,f]azepine], the IC50 is 19.7 µM. Under `O=C1CCCCCCCCCCOCCCCO1` [12-Oxahexadecanolide] stands 49 µM; under `CCCCCC(=O)O[C@]1(C(C)=O)CC[C@H]2[C@@H]3CCC4=CC(=O)CC[C@]4(C)[C@H]3CC[C@@]21C` [17-((1-Oxohexyl)oxy)pregn-4-ene-3,20-dione], 22.6 µM; under `COc1ccc2c(c1OC)C(=O)O[C@H]2[C@@H]1c2cc3c(cc2CCN1C)OCO3` [(1S,9R)-beta-Hydrastine], 19 µM. With `CC(Cc1ccc(C(C)(C)C)cc1)CN1C[C@@H](C)O[C@@H](C)C1` (stereo partly drawn) [(2R,6S)-Fenpropimorph] the figure was 15.5 µM.

Compound `CC/C=C\CCOC(=O)c1ccccc1O` [(3Z)-Hex-3-en-1-yl salicylate] had an IC50 of 34.7 µM.

The compound `CC1(C)CCC[C@]2(C)[C@H]3CC(=O)O[C@]3(C)CC[C@@H]12` [(3aR)-(+)-Sclareolide] had an IC50 of 42 µM. In turn, `O=C(c1ccccc1)c1cc(Cl)ccc1O` [(5-Chloro-2-hydroxyphenyl)phenylmethanone] had an IC50 of 46.5 µM.

For the compound `C[C@@H]1CC[C@H]2C(C)(C)[C@H]3C[C@@]12CC[C@@]3(C)O` [(+)-Cedrol], half-maximal inhibition (IC50) was put at 43.6 µM. `CC[C@]12CCCN3CCc4c(n(c5ccccc45)C(=O)C1)[C@@H]32` [(-)-Eburnamonine] had a half-maximal inhibitory concentration (IC50) of 1.9 µM. The compound `CC(C)=CCN1CC[C@@]2(C)c3cc(O)ccc3C[C@@H]1[C@@H]2C` [(-)-Pentazocine succinate] gave an IC50 of 22.8 µM. As to `C/C=C\C/C=C/CCCCCCCCOC(C)=O` [(E,Z)-Tetradeca-9,12-dienyl acetate], half-maximal inhibition (IC50) required 36.7 µM. In turn, `C[C@@H](C1=C(CCN(C)C)Cc2ccccc21)c1ccccn1` [(S)-(+)-Dimethindene maleate] had an IC50 of 13.4 µM. This IC50 lies about 2.7-fold lower than the previous one. `CCN(CC)CC1CCCCN1CC(=O)N1c2ccccc2C(=O)Nc2cccnc21` (stereo not shown) [AF-DX 116]: the midpoint of inhibition, the IC50, lay at 20.5 µM. Turning to `CC1(C)CCC(C)(C)c2cc(C(=O)Nc3ccc(C(=O)O)cc3)ccc21` [AM580], the IC50 was determined as 43.6 µM. `O=C1NCN(c2ccccc2)C12CCN(CCCOc1ccc(F)cc1)CC2` [AMI-193] had an IC50 of 0.786 µM. With `NCc1cccc(C2CCN(C(=O)c3ccc(C#Cc4ccccc4F)o3)CC2)c1` [AVE5638], half-maximal inhibition (IC50) was put at 9.77 µM. This IC50 is about 12-fold higher than that of the compound before.

Regarding `CCOC(=O)O[C@H](C)OC(=O)c1ccc2c(c1)cc(C(=O)NC1CCN(C(C)C)CC1)n2Cc1cc(-c2ccc(Cl)s2)on1` [AVE6324], the concentration for half-maximal inhibition (IC50) was 8.14 µM.

Take `CN1CCN(Cc2cc(-c3ccc4[nH]c(=O)oc4c3)co2)[C@@H](c2ccc(F)cc2)C1` [AVE8488]: it took 37.4 µM to reach half-maximal inhibition (IC50). This IC50 lies about 4.6-fold higher than the previous one.

Compound `CCCOc1sc(C(=O)N2CCC(c3cc(CN)ccc3F)CC2)c(C)c1Br` [AVE8923] gave an IC50 of 4.49 µM. Take `CC=O` [Acetaldehyde]: the IC50 came out at 5.33 µM. Under `CC(=O)c1ccc2c(c1)N(CCCN(C)C)c1ccccc1S2` [Acetopromazine maleate] stands 15.1 µM; under `CCCCOC(=O)CC(CC(=O)OCCCC)(OC(C)=O)C(=O)OCCCC` [Acetyl tributyl citrate], 8.99 µM; under `CC(=O)C1=C(C)[C@@H]2C[C@@]3(C1)[C@H](C)CC[C@H]3C2(C)C` [Acetylcedrene], 30.5 µM. `CCN(CC)CCOC(=O)C(c1ccccc1)c1ccccc1` [Adiphenine hydrochloride] had an IC50 of 4.77 µM. In turn, `ClC1=C(Cl)[C@]2(Cl)[C@H]3[C@H]([C@@H]4C=C[C@H]3C4)[C@@]1(Cl)C2(Cl)Cl` [Aldrin] had an IC50 of 23.6 µM.

In turn, `C=CCOc1cc(Cl)ccc1C(=O)NCCN(CC)CC` [Alloclamide] had an IC50 of 8.82 µM. Against the preceding compound, the IC50 is about 2.7-fold lower. As to `C=CCCC(=O)/C=C/C1C(C)=CCCC1(C)C` (stereo not shown) [Allyl Ionone], the IC50 was 30.9 µM. Consider `C=CCNc1nc(NCC=C)nc(N2CCN(C(c3ccc(F)cc3)c3ccc(F)cc3)CC2)n1` [Almitrine dimethanesulfonate], for which half-maximal inhibition (IC50) was put at 6.01 µM.
